Data reported in ChEMBL document CHEMBL1201862, “PubChem BioAssay data set” (2004).
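Interpolation was linear, between the two tested concentrations surrounding the appropriate level; five concentrations were tested over 48 hours in 96-well plates. Abbreviation: GI50, concentration required for 50% inhibition of growth.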 The source made the active and inactive calls. No stated cut-off is given here; in the data, active = GI50 up to about 1.1 µM and inactive = higher.

Assays:
Assay in all cases: NCI-60 cell line screen, 48 h
MCF7 = system: MCF7
COLO 205 = system: COLO 205
CAKI-1 = system: CAKI-1
BT-549 = system: BT-549
TK-10 = system: TK-10
SW-620 = system: SW-620
RPMI-8226 = system: RPMI-8226
HCT-116 = system: HCT-116
RXF 393 = system: RXF 393
NCI-H23 = system: NCI-H23
SK-MEL-2 = system: SK-MEL-2
SF-295 = system: SF-295
MDA-MB-231 = system: MDA-MB-231
786-0 = system: 786-0
EKVX = system: EKVX
HOP-92 = system: HOP-92
OVCAR-4 = system: OVCAR-4
HL-60 = system: HL-60
MDA-N = system: MDA-N
SK-OV-3 = system: SK-OV-3

Row | SMILES | GI50 (MCF7) | GI50 (COLO 205) | GI50 (CAKI-1) | GI50 (BT-549) | GI50 (TK-10) | GI50 (SW-620) | GI50 (RPMI-8226) | GI50 (HCT-116) | GI50 (RXF 393) | GI50 (NCI-H23) | GI50 (SK-MEL-2) | GI50 (SF-295) | GI50 (MDA-MB-231) | GI50 (786-0) | GI50 (EKVX) | GI50 (HOP-92) | GI50 (OVCAR-4) | GI50 (HL-60) | GI50 (MDA-N) | GI50 (SK-OV-3)
1 | COc1ccc2c(c1)CCc1cc(C(N)=O)c3nnnn3c1-2 | > 100 µM (inactive) | > 100 µM (inactive) | 36.7 µM (inactive) | 35.5 µM (inactive) | 8.13 µM (inactive) | > 100 µM (inactive) | > 100 µM (inactive) | 67.1 µM (inactive) | 16.9 µM (inactive) | 60.1 µM (inactive) | > 42.1 µM (inactive) | 44.1 µM (inactive) | > 49.2 µM (inactive) | 33.6 µM (inactive) | < 0.0224 µM (active) | 30.9 µM (inactive) | > 81.3 µM (inactive) | > 100 µM (inactive) | > 100 µM (inactive) | 54.3 µM (inactive)
2 | NC(CSS(=O)(=O)c1ccccc1)C(=O)O (stereo not given) | > 10 µM (inactive) | > 10 µM (inactive) | > 10 µM (inactive) | > 10 µM (inactive) | > 10 µM (inactive) | > 10 µM (inactive) | > 10 µM (inactive) | > 10 µM (inactive) | > 10 µM (inactive) | > 10 µM (inactive) | > 10 µM (inactive) | > 10 µM (inactive) | > 10 µM (inactive) | > 10 µM (inactive) | > 10 µM (inactive) | > 10 µM (inactive) | > 10 µM (inactive) | > 10 µM (inactive) | > 10 µM (inactive) | > 10 µM (inactive)
3 | CCOC(=O)/C1=C(\C)N(Cc2ccccc2)C(=O)c2ccccc2C(=O)c2c(O)ccc(O)c21 | < 0.01 µM (active) | > 100 µM (inactive) | > 100 µM (inactive) | < 0.01 µM (active) | > 100 µM (inactive) | > 100 µM (inactive) | 66.7 µM (inactive) | > 100 µM (inactive) | 17.5 µM (inactive) | > 100 µM (inactive) | > 100 µM (inactive) | > 100 µM (inactive) | > 100 µM (inactive) | > 100 µM (inactive) | 80.7 µM (inactive) | 48.4 µM (inactive) | > 100 µM (inactive) | > 100 µM (inactive) | > 100 µM (inactive) | > 100 µM (inactive)
4 | COc1ccc2c(=O)c(-c3cc(OC)c(OC)cc3OC)coc2c1 | 0.778 µM (active) | 3.32 µM (inactive) | 3.01 µM (inactive) | > 100 µM (inactive) | 31.5 µM (inactive) | 2.33 µM (inactive) | 2.35 µM (inactive) | 2.28 µM (inactive) | 2.45 µM (inactive) | 8.67 µM (inactive) | 2.27 µM (inactive) | 1.66 µM (inactive) | > 100 µM (inactive) | 4.11 µM (inactive) | 36.1 µM (inactive) | 1.81 µM (inactive) | > 100 µM (inactive) | 0.735 µM (active) | 0.262 µM (active) | 3.02 µM (inactive)
5 | Cc1nc(Nc2ccc(Cl)c(Cl)c2)sc1C(/C=C/c1ccc2c(c1)OCO2)=N/Nc1ccc([N+](=O)[O-])cc1[N+](=O)[O-] | > 100 µM (inactive) | > 100 µM (inactive) | > 46.5 µM (inactive) | > 100 µM (inactive) | 66.5 µM (inactive) | > 100 µM (inactive) | > 82.2 µM (inactive) | 56.5 µM (inactive) | 27.2 µM (inactive) | 67.3 µM (inactive) | > 100 µM (inactive) | 53.3 µM (inactive) | > 100 µM (inactive) | 20.1 µM (inactive) | > 100 µM (inactive) | 85.1 µM (inactive) | > 100 µM (inactive) | > 79.6 µM (inactive) | > 100 µM (inactive) | > 91.8 µM (inactive)
6 | COc1cc2c(cc1OC)C13CCN4C=C5CCOC6CC(=O)N2C1C6C5CC43 (stereo not given) | > 100 µM (inactive) | > 100 µM (inactive) | > 100 µM (inactive) | > 100 µM (inactive) | > 100 µM (inactive) | > 100 µM (inactive) | > 100 µM (inactive) | > 100 µM (inactive) | > 100 µM (inactive) | > 100 µM (inactive) | > 100 µM (inactive) | > 100 µM (inactive) | > 100 µM (inactive) | > 100 µM (inactive) | > 100 µM (inactive) | > 100 µM (inactive) | > 100 µM (inactive) | > 100 µM (inactive) | > 100 µM (inactive) | > 100 µM (inactive)
7 | CCSc1nn(-c2c3ccccc3nc3ccccc23)c(=S)s1 | > 100 µM (inactive) | > 100 µM (inactive) | > 100 µM (inactive) | > 100 µM (inactive) | > 100 µM (inactive) | > 100 µM (inactive) | > 100 µM (inactive) | > 100 µM (inactive) | > 100 µM (inactive) | > 100 µM (inactive) | > 100 µM (inactive) | > 100 µM (inactive) | > 100 µM (inactive) | > 100 µM (inactive) | > 100 µM (inactive) | > 100 µM (inactive) | > 100 µM (inactive) | > 100 µM (inactive) | > 100 µM (inactive) | > 100 µM (inactive)
8 | COc1cc(/C=C2\C(=O)N(c3cccc(Cl)c3)C(c3ccccc3)S2(=O)=O)cc(OC)c1OC (stereo not given) | 33.9 µM (inactive) | > 100 µM (inactive) | > 100 µM (inactive) | > 100 µM (inactive) | > 100 µM (inactive) | 59.7 µM (inactive) | 23.2 µM (inactive) | 24.1 µM (inactive) | 26.2 µM (inactive) | 66.2 µM (inactive) | > 100 µM (inactive) | 36.4 µM (inactive) | > 100 µM (inactive) | 42.2 µM (inactive) | > 100 µM (inactive) | 30.6 µM (inactive) | 85.5 µM (inactive) | 36.4 µM (inactive) | 20.8 µM (inactive) | 58.1 µM (inactive)
9 | CCN(CC)CCOCCOCC1(c2ccc(Cl)c(Cl)c2)CCCCC1 | 6.34 µM (inactive) | 4.41 µM (inactive) | 10.1 µM (inactive) | 12.7 µM (inactive) | 9.38 µM (inactive) | 5.61 µM (inactive) | 2.51 µM (inactive) | 5.82 µM (inactive) | 4.26 µM (inactive) | 11 µM (inactive) | 14.9 µM (inactive) | 5.83 µM (inactive) | 10.8 µM (inactive) | 3.28 µM (inactive) | 8.17 µM (inactive) | 6.14 µM (inactive) | 12.6 µM (inactive) | 5.82 µM (inactive) | 3.65 µM (inactive) | 11.6 µM (inactive)
10 | N#CC12CC3=C(N=C1NC1=C(CCc4ccccc41)C2)c1ccccc1CC3 (stereo not given) | 0.594 µM (active) | 1.73 µM (inactive) | 3.8 µM (inactive) | 9.29 µM (inactive) | 4.61 µM (inactive) | 0.871 µM (active) | 0.993 µM (active) | 1.95 µM (inactive) | 3.4 µM (inactive) | 3.18 µM (inactive) | 4.39 µM (inactive) | 0.984 µM (active) | 4.16 µM (inactive) | 3.42 µM (inactive) | 4.67 µM (inactive) | 2.72 µM (inactive) | 7.55 µM (inactive) | 0.323 µM (active) | 0.258 µM (active) | 2.67 µM (inactive)
11 | COc1ccc2c(c1)c1ccc3c(c1n2C)C(=O)C=CC3=O | 2.45 µM (inactive) | 9.75 µM (inactive) | 8.26 µM (inactive) | 3.77 µM (inactive) | 7.76 µM (inactive) | 4.1 µM (inactive) | 2.17 µM (inactive) | 5.42 µM (inactive) | 5.35 µM (inactive) | 13 µM (inactive) | 17.2 µM (inactive) | 24.3 µM (inactive) | 5.18 µM (inactive) | 6.78 µM (inactive) | 14.1 µM (inactive) | 4.95 µM (inactive) | 8.38 µM (inactive) | 0.904 µM (active) | 8.91 µM (inactive) | 29.2 µM (inactive)
